We go through 26 compounds from patent US8642590B2, “Alkylcyclohexylethers of dihydrotetraazabenzoazulenes” (Hoffmann-La Roche Inc., priority 2008, dated 2014).

Molecules are shown by their SMILES. Where a name gives a salt, the structure may show the parent alone.

The target of one test is T1, human V1a receptor (Homo sapiens, UniProt P37288).
T1 construct: expressed in transfected cells; host or cells: HEK293 cells, transiently transfected; cell membranes prepared
T1 sequence (P37288 whole entry): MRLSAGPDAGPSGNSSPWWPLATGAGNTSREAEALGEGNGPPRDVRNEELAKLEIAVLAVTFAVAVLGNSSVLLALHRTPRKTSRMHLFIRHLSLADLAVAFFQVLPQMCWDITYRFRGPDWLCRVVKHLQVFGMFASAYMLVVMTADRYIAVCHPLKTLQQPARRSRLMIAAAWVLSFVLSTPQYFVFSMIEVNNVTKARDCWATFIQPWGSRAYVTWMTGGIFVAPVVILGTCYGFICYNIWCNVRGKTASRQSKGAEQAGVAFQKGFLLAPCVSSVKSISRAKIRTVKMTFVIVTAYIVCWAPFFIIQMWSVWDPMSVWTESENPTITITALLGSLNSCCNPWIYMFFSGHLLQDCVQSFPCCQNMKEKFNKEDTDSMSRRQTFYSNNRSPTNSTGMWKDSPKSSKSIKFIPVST
Nature of the test: human V1a receptor binding study (3H-Vasopressin, SPA beads, HEK293 membranes).
Conditions: not given
Here is the method: The human V1a receptor was cloned by RT-PCR from total human liver RNA. The coding sequence was subcloned in an expression vector after sequencing to confirm the identity of the amplified sequence. […] Cell membranes were prepared from HEK293 cells transiently transfected with the expression vector and grown in 20 liter fermenters with the following protocol.
50 g of cells are resuspended in 30 ml freshly prepared ice cold Lysis buffer (50 mM HEPES, 1 mM EDTA, 10 mM magnesium dichloride adjusted to pH=7.4+complete cocktail of protease inhibitor (Roche Diagnostics)). Homogenized with Polytron for 1 min and sonicated on ice for 2×2 minutes at 80% intensity (Vibracell sonicator). The preparation is centrifuged 20 min at 500 g at 4° C., the pellet is discarded and the supernatant centrifuged 1 hour at 43,000 g at 4° C. (19,000 rpm). The pellet is resuspended in 12.5 ml Lysis buffer+12.5 ml Sucrose 20% and homogenized using a Polytron for 1-2 min. The protein concentration is determined by the Bradford method and aliquots are stored at −80° C. until use. For binding studies 60 mg Yttrium silicate SPA beads (Amersham) are mixed with an aliquot of membrane in binding buffer (50 mM Tris, 120 mM sodium chloride, 5 mM potassium chloride, 2 mM Calcium dichloride, 10 mM magnesium dichloride) for 15 minutes with mixing. 50 μl of bead/membrane mixture is then added to each well of a 96 well plate, followed by 50 μl of 4 nM 3H-Vasopressin (American Radiolabeled Chemicals). For total binding measurement 100 μl of binding buffer are added to the respective wells, for non-specific binding 100 μl of 8.4 mM cold vasopressin and for compound testing 100 μl of a serial dilution of each compound in 2% dimethyl sulfoxide. The plate is incubated 1 h at room temperature, centrifuged 1 min at 1000 g and counted on a Packard Top-Count. Non-specific binding counts are subtracted from each well and data is normalized to the maximum specific binding set at 100%. To calculate an IC 50 the curve is fitted using a non-linear regression model (XLfit) and the Ki is calculated using the Cheng-Prussoff equation.
Consider `CC(C)(C)OC(=O)N1Cc2cc(Cl)ccc2-n2c(nnc2[C@H]2CC[C@@H](OC3CCCCC3)CC2)C1` [Example 42, cis-8-Chloro-1-(4-cyclohexyloxy-cyclohexyl)-4H,6H-2,3,5,10b-tetraaza-benzoazulene-5-carboxylic acid tert-butyl ester], for which the Ki was 17.8 nM.

Staying with this test, now noted: membranes of HEK293 cells transiently transfected with human V1a receptor; 3H-Vasopressin; Ki calculated using the Cheng-Prussoff equation; read-out: pKi (hV1a) (converted).
Take `COC[C@@H](C)O[C@H]1CC[C@H](c2nnc3n2-c2ccc(Cl)cc2CN(C)C3)CC1` (stereo in doubt) [Example 49, (−)-trans-8-Chloro-1-[4-(2-methoxy-1-methyl-ethoxy)-cyclohexyl]-5-methyl-5,6-dihydro-4H-2,3,5,10b-tetraaza-benzo[e]azulene]: the Ki is 5.5 nM. For `CC(C)O[C@H]1CC[C@@H](c2nnc3n2-c2ccc(Cl)cc2CNC3)CC1` [Example 23, cis-8-Chloro-1-(4-isopropoxy-cyclohexyl)-5,6-dihydro-4H-2,3,5,10b-tetraaza-benzo[e]azulene hydrochloride], the Ki was 363 nM. On the same count and under the same terms, with `CC(CF)O[C@H]1CC[C@H](c2nnc3n2-c2ccc(Cl)cc2CN(C)C3)CC1` (mixture of isomers) [Example 53, (RS)-trans-8-Chloro-1-[4-(2-fluoro-1-methyl-ethoxy)-cyclohexyl]-5-methyl-5,6-dihydro-4H-2,3,5,10b-tetraaza-benzo[e]azulene] the figure was 2.82 nM; with `CN1Cc2cc(Cl)ccc2-n2c(nnc2[C@H]2CC[C@H](OC3CCCC3)CC2)C1` [Example 38, trans-8-Chloro-1-(4-cyclopentyloxy-cyclohexyl)-5-methyl-5,6-dihydro-4H-2,3,5,10b-tetraaza-benzo[e]azulene], 0.794 nM. Take `CC(C)O[C@H]1CC[C@H](c2nnc3n2-c2ccc(Cl)cc2CN(C)C3)CC1` [Example 10, trans-8-Chloro-1-(4-isopropoxy-cyclohexyl)-5-methyl-5,6-dihydro-4H-2,3,5,10b-tetraaza-benzo[e]azulene]: the Ki was 2.82 nM.

For the compound `Clc1ccc2c(c1)CNCc1nnc([C@H]3CC[C@H](OC4CCC4)CC3)n1-2` [Example 31, trans-8-Chloro-1-(4-cyclobutoxy-cyclohexyl)-5,6-dihydro-4H-2,3,5,10b-tetraaza-benzo[e]azulene hydrochloride], the Ki was 10.7 nM. The same measure, in the same setting: in the case of `CC(C)(C)OC(=O)N1Cc2cc(Cl)ccc2-n2c(nnc2[C@H]2CC[C@@H](OC3CCOCC3)CC2)C1` [Example 60, cis-8-Chloro-1-[4-(tetrahydro-pyran-4-yloxy)-cyclohexyl]-4H,6H-2,3,5,10b-tetraaza-benzoazulene-5-carboxylic acid tert-butyl ester] it was 7.08 nM; in that of `CC(C)O[C@H]1CC[C@H](c2nnc3n2-c2ccc(Cl)cc2CNC3)CC1` [Example 9, trans-8-Chloro-1-(4-isopropoxy-cyclohexyl)-5,6-dihydro-4H-2,3,5,10b-tetraaza-benzo[e]azulene hydrochloride], 17.4 nM; in that of `CC(CO)O[C@H]1CC[C@H](c2nnc3n2-c2ccc(Cl)cc2CN(C(=O)OC(C)(C)C)C3)CC1` (mixture of isomers) [Example 50, (RS)-trans-8-Chloro-1-[4-(2-hydroxy-1-methyl-ethoxy)-cyclohexyl]-4H,6H-2,3,5,10b-tetraaza-benzo[e]azulene-5-carboxylic acid tert-butyl ester], 2.69 nM. Same read-out and setting: in the case of `COC[C@H](C)O[C@H]1CC[C@H](c2nnc3n2-c2ccc(Cl)cc2CN(C)C3)CC1` (stereo in doubt) [Example 48, (+)-trans-8-Chloro-1-[4-(2-methoxy-1-methyl-ethoxy)-cyclohexyl]-5-methyl-5,6-dihydro-4H-2,3,5,10b-tetraaza-benzo[e]azulene] it was 47.9 nM; in that of `CC(CO)O[C@H]1CC[C@H](c2nnc3n2-c2ccc(Cl)cc2CN(C)C3)CC1` (mixture of isomers) [Example 52, (RS)-trans-2-[4-(8-Chloro-5-methyl-5,6-dihydro-4H-2,3,5,10b-tetraaza-benzo[e]azulen-1-yl)-cyclohexyloxy]-propan-1-ol], 19.1 nM; in that of `CC(C)O[C@H]1CC[C@H](c2nnc3n2-c2ccc(F)cc2CNC3)CC1` [Example 20, trans-8-Fluoro-1-(4-isopropoxy-cyclohexyl)-5,6-dihydro-4H-2,3,5,10b-tetraaza-benzo[e]azulene hydrochloride], 251 nM. The same measure, in the same setting: with `CC(C)O[C@H]1CC[C@H](c2nnc3n2-c2ccc(Cl)cc2CN(S(=O)(=O)N(C)C)C3)CC1` [Example 14, trans-8-Chloro-1-(4-isopropoxy-cyclohexyl)-4H,6H-2,3,5,10b-tetraaza-benzoazulene-5-sulfonic acid dimethylamide] the figure was 1 nM.

`CC(CC(F)(F)F)O[C@H]1CC[C@H](c2nnc3n2-c2ccc(Cl)cc2CN(C(=O)OC(C)(C)C)C3)CC1` (mixture of isomers) [Example 54, (RS)-trans-8-Chloro-1-[4-(3,3,3-trifluoro-1-methyl-propoxy)-cyclohexyl]-4H,6H-2,3,5,10b-tetraaza-benzo[e]azulene-5-carboxylic acid tert-butyl ester]: the Ki was 8.51 nM. Still for that read-out and setting: in the case of `CN1Cc2cc(Cl)ccc2-n2c(nnc2[C@H]2CC[C@@H](OC3CCCCC3)CC2)C1` [Example 44, cis-8-Chloro-1-(4-cyclohexyloxy-cyclohexyl)-5-methyl-5,6-dihydro-4H-2,3,5,10b-tetraaza-benzoazulene] it was 14.1 nM. The same measure, in the same setting: in the case of `CC(C)O[C@H]1CC[C@H](c2nnc3n2-c2ccc(F)cc2CN(C(=O)OC(C)(C)C)C3)CC1` [Example 19, trans-8-Fluoro-1-(4-isopropoxy-cyclohexyl)-4H,6H-2,3,5,10b-tetraaza-benzo[e]azulene-5-carboxylic acid tert-butyl ester] it was 3.8 nM; in that of `COCC(C)O[C@H]1CC[C@H](c2nnc3n2-c2ccc(Cl)cc2CNC3)CC1` (mixture of isomers) [Example 46, (RS)-trans-8-Chloro-1-[4-(2-methoxy-1-methyl-ethoxy)-cyclohexyl]-5,6-dihydro-4H-2,3,5,10b-tetraaza-benzo[e]azulene hydrochloride], 117 nM; in that of `CN1Cc2cc(Cl)ccc2-n2c(nnc2[C@H]2CC[C@H](OC(F)(F)F)CC2)C1` [Example 67, trans-8-Chloro-5-methyl-1-(4-trifluoromethoxy-cyclohexyl)-5,6-dihydro-4H-2,3,5,10b-tetraaza-benzo[e]azulene], 26.3 nM.

As for `CC(C)O[C@H]1CC[C@H](c2nnc3n2-c2ccc(Cl)cc2CN(S(C)(=O)=O)C3)CC1` [Example 11, trans-8-Chloro-1-(4-isopropoxy-cyclohexyl)-5-methanesulfonyl-5,6-dihydro-4H-2,3,5,10b-tetraaza-benzoazulene], the Ki is 1.1 nM. Same read-out and setting: in the case of `CC[C@@H](C)O[C@H]1CC[C@H](c2nnc3n2-c2ccc(Cl)cc2CN(C)C3)CC1` (single isomer, unassigned) [Example 29, (−)-trans-1-(4-sec-Butoxy-cyclohexyl)-8-chloro-5-methyl-5,6-dihydro-4H-2,3,5,10b-tetraaza-benzo[e]azulene] it was 1.58 nM.

Consider `CCO[C@H]1CC[C@H](c2nnc3n2-c2ccc(Cl)cc2CN(C(=O)OC(C)(C)C)C3)CC1` [Example 2, trans-8-Chloro-1-(4-ethoxy-cyclohexyl)-4H,6H-2,3,5,10b-tetraaza-benzo[e]azulene-5-carboxylic acid tert-butyl ester], for which the Ki is 2.4 nM.

`CCO[C@H]1CC[C@H](c2nnc3n2-c2ccc(Cl)cc2CNC3)CC1` [Example 3, trans-8-Chloro-1-(4-ethoxy-cyclohexyl)-5,6-dihydro-4H-2,3,5,10b-tetraaza-benzo[e]azulene hydrochloride]: the Ki was 63.1 nM. Take `CC(C)O[C@H]1CC[C@H](c2nnc3n2-c2ccc(Cl)cc2CN(Cc2ccccn2)C3)CC1` [Example 15, trans-8-Chloro-1-(4-isopropoxy-cyclohexyl)-5-pyridin-2-ylmethyl-5,6-dihydro-4H-2,3,5,10b-tetraaza-benzoazulene]: the Ki is 1.41 nM. Same read-out and setting: with `CC(CC(F)(F)F)O[C@H]1CC[C@H](c2nnc3n2-c2ccc(Cl)cc2CNC3)CC1` (mixture of isomers) [Example 55, (RS)-trans-8-Chloro-1-[4-(3,3,3-trifluoro-1-methyl-propoxy)-cyclohexyl]-5,6-dihydro-4H-2,3,5,10b-tetraaza-benzo[e]azulene hydrochloride] the figure was 75.9 nM; with `CN1Cc2cc(Cl)ccc2-n2c(nnc2[C@H]2CC[C@H](OC3CCOCC3)CC2)C1` [Example 62, trans-8-Chloro-5-methyl-1-[4-(tetrahydro-pyran-4-yloxy)-cyclohexyl]-5,6-dihydro-4H-2,3,5,10b-tetraaza-benzoazulene], 20 nM.
